Data on 30 compounds can be found in patent US20170143701A1, “CARBOHYDRATE METABOLISM-AMELIORATING AGENT” (SUNTORY HOLDINGS LIMITED, priority 2014, published 2017).

The structures appear in SMILES notation.

This experiment concerns NCI-H716 cells. The experiment in a line: In vitro GLP-1 secretion-accelerating action: amount of active GLP-1 secreted (ELISA). The note with it: 1 hour; for Significant difference (p < 0.05) vs control group, amount of active GLP-1 secreted: 10 mM, Student's t-test; for Amount of active GLP-1 secreted (relative value to control group as 100), average value: cyclic dipeptide 10 mM with 10 μM Sitagliptin phosphate, group with no cyclic dipeptide = 100. It is filed as cell-based. How it is done: Among the cyclic dipeptides, 92 highly water-soluble cyclic dipeptides were used in the following experiment. In each well of a Poly-L-Lysine 96-well plate, NCI-H716 cells suspended in 100 μL of a DMEM (with 10% FBS, 2 mM glutamine, and 1% antibiotics added in advance) were seeded at 0.5×10^5 cells/well, and cultured in a CO2 incubator (manufactured by ESPEC CORP.) for 48 hours. After washing with PBS(+), 100 μL of a PBS(+) solution with each cyclic dipeptide at a final concentration of 10 mM and 10 μM of Sitagliptin phosphate added therein was added to the cells. After 1 hour, the resultant solution was recovered, and the amount of active GLP-1 in the solution was measured by using the ELISA kit. In the analysis, the amount of active GLP-1 for a group with no cyclic dipeptide added was defined as 100, and relative values thereto were used.

Turning to `NCCCC[C@@H]1NC(=O)[C@@H]2CCCN2C1=O` [compound 58, Cyclo(Lys-Pro)], under “Table 2, Experiment 2”, the “Significant difference (p < 0.05) vs control group, amount of active GLP-1 secreted” value is reported as “No” and the “Amount of active GLP-1 secreted (relative value to control group as 100), average value” was 91.

Turning to `NCCCC[C@@H]1NC(=O)[C@H](Cc2c[nH]c3ccccc23)NC1=O` [compound 59, cyclo-tryptophanyl-lysine], where the note is “Table 2, Experiment 2”, the “Significant difference (p < 0.05) vs control group, amount of active GLP-1 secreted” value is “Yes” and the “Amount of active GLP-1 secreted (relative value to control group as 100), average value” is listed as 239.

`NC(=O)CCC1NC(=O)C(Cc2ccccc2)NC1=O` (stereo not drawn) [compound 65, cyclo-glutaminyl-phenylalanine]: where the note is “Table 2, Experiment 2”, the “Significant difference (p < 0.05) vs control group, amount of active GLP-1 secreted” value is “Yes” and the “Amount of active GLP-1 secreted (relative value to control group as 100), average value” worked out at 227.

On to `CC(C)CC1NC(=O)C(CCCCN)NC1=O` (stereo not drawn) [compound 68, Cyclo(Leu-Lys)], for which, where the note is “Table 2, Experiment 2”, the “Significant difference (p < 0.05) vs control group, amount of active GLP-1 secreted” value is “No” and the “Amount of active GLP-1 secreted (relative value to control group as 100), average value” stood at 208.

For `C[C@@H]1NC(=O)[C@H](CCCCN)NC1=O` [compound 69, Cyclo(Ala-Lys)], under “Table 2, Experiment 2”, the “Significant difference (p < 0.05) vs control group, amount of active GLP-1 secreted” value is reported as “No” and the “Amount of active GLP-1 secreted (relative value to control group as 100), average value” is on record as 161.

In the case of `O=C1NCC(=O)N2CC(O)CC12` (stereo not drawn) [compound 73, Cyclo(Hyp-Gly)], where the note is “Table 2, Experiment 2”, the “Significant difference (p < 0.05) vs control group, amount of active GLP-1 secreted” value is on record as “No” and the “Amount of active GLP-1 secreted (relative value to control group as 100), average value” turned out to be 121.

As for `O=C1C2CC(O)CN2C(=O)C2CCCN12` (stereo not drawn) [compound 74, Cyclo(Hyp-Pro)], for the setting “Table 2, Experiment 2”, the “Significant difference (p < 0.05) vs control group, amount of active GLP-1 secreted” value is recorded as “No” and the “Amount of active GLP-1 secreted (relative value to control group as 100), average value” was 115.

Consider `O=C1NC(Cc2c[nH]c3ccccc23)C(=O)NC1CO` (stereo not drawn) [compound 78, Cyclo(Trp-Ser)], for which, where the note is “Table 2, Experiment 2”, the “Significant difference (p < 0.05) vs control group, amount of active GLP-1 secreted” value was “No” and the “Amount of active GLP-1 secreted (relative value to control group as 100), average value” was determined as 119.

In the case of `NCCCCC1NC(=O)CNC1=O` (stereo not drawn) [compound 96, cyclo-lysyl-glycine], for the setting “Table 3, Experiment 3”, the “Significant difference (p < 0.05) vs control group, amount of active GLP-1 secreted” value was “Yes” and the “Amount of active GLP-1 secreted (relative value to control group as 100), average value” turned out to be 133.

Consider `NCCCC[C@@H]1NC(=O)[C@H](CCC(=O)O)NC1=O` [compound 97, Cyclo(Glu-Lys)], for which, where the note is “Table 3, Experiment 3”, the “Significant difference (p < 0.05) vs control group, amount of active GLP-1 secreted” value is reported as “No” and the “Amount of active GLP-1 secreted (relative value to control group as 100), average value” worked out at 66.

For `NCCCC[C@@H]1NC(=O)[C@H](CO)NC1=O` [compound 98, cyclo-seryl-lysine], under “Table 3, Experiment 3”, the “Significant difference (p < 0.05) vs control group, amount of active GLP-1 secreted” value is listed as “Yes” and the “Amount of active GLP-1 secreted (relative value to control group as 100), average value” is on record as 71.

On to `CC(C)[C@@H]1NC(=O)[C@H](CCCCN)NC1=O` [compound 99, cyclo-valyl-lysine], for which, for the setting “Table 3, Experiment 3”, the “Significant difference (p < 0.05) vs control group, amount of active GLP-1 secreted” value is “Yes” and the “Amount of active GLP-1 secreted (relative value to control group as 100), average value” was determined as 532.

As for `NCCCCC1NC(=O)C(CC(=O)O)NC1=O` (stereo not drawn) [compound 100, Cyclo(Asp-Lys)], under “Table 3, Experiment 3”, the “Significant difference (p < 0.05) vs control group, amount of active GLP-1 secreted” value is “No” and the “Amount of active GLP-1 secreted (relative value to control group as 100), average value” was 116.

For the compound `NCCCC[C@@H]1NC(=O)[C@H](CC(N)=O)NC1=O` [compound 101, cyclo-asparaginyl-lysine], where the note is “Table 3, Experiment 3”, the “Significant difference (p < 0.05) vs control group, amount of active GLP-1 secreted” value was “Yes” and the “Amount of active GLP-1 secreted (relative value to control group as 100), average value” is given as 250.

With `NCCCC[C@@H]1NC(=O)[C@H](CCC(N)=O)NC1=O` [compound 102, Cyclo(Gln-Lys)], for the setting “Table 3, Experiment 3”, the “Significant difference (p < 0.05) vs control group, amount of active GLP-1 secreted” value is reported as “No” and the “Amount of active GLP-1 secreted (relative value to control group as 100), average value” amounted to 112.

With `O=C1NC(Cc2cnc[nH]2)C(=O)NC1Cc1cnc[nH]1` (stereo not drawn) [compound 107, cyclo-histidyl-histidine], where the note is “Table 3, Experiment 3”, the “Significant difference (p < 0.05) vs control group, amount of active GLP-1 secreted” value is on record as “Yes” and the “Amount of active GLP-1 secreted (relative value to control group as 100), average value” amounted to 182.

Consider `CC(O)C1NC(=O)C(Cc2cnc[nH]2)NC1=O` (stereo not drawn) [compound 109, cyclo-threonyl-histidine], for which, under “Table 3, Experiment 3”, the “Significant difference (p < 0.05) vs control group, amount of active GLP-1 secreted” value is given as “Yes” and the “Amount of active GLP-1 secreted (relative value to control group as 100), average value” turned out to be 290.

For the compound `O=C(O)CC1NC(=O)C(Cc2cnc[nH]2)NC1=O` (stereo not drawn) [compound 110, cyclo-aspartyl-histidine], where the note is “Table 3, Experiment 3”, the “Significant difference (p < 0.05) vs control group, amount of active GLP-1 secreted” value is “Yes” and the “Amount of active GLP-1 secreted (relative value to control group as 100), average value” is recorded as 340.

Consider `NC(=O)C[C@@H]1NC(=O)[C@H](Cc2cnc[nH]2)NC1=O` [compound 111, cyclo-asparaginyl-histidine], for which, for the setting “Table 3, Experiment 3”, the “Significant difference (p < 0.05) vs control group, amount of active GLP-1 secreted” value is “Yes” and the “Amount of active GLP-1 secreted (relative value to control group as 100), average value” is 341.

In the case of `NC(N)=NCCC[C@@H]1NC(=O)[C@H](Cc2cnc[nH]2)NC1=O` [compound 112, Cyclo(Arg-His)], under “Table 3, Experiment 3”, the “Significant difference (p < 0.05) vs control group, amount of active GLP-1 secreted” value is “No” and the “Amount of active GLP-1 secreted (relative value to control group as 100), average value” was 106.

`C[C@@H]1NC(=O)[C@H](CCC(=O)O)NC1=O` [compound 113, Cyclo(Glu-Ala)]: where the note is “Table 3, Experiment 3”, the “Significant difference (p < 0.05) vs control group, amount of active GLP-1 secreted” value is “No” and the “Amount of active GLP-1 secreted (relative value to control group as 100), average value” was found to be 157.

For `CC1NC(=O)C(C(C)O)NC1=O` (stereo not drawn) [compound 114, Cyclo(Thr-Ala)], under “Table 3, Experiment 3”, the “Significant difference (p < 0.05) vs control group, amount of active GLP-1 secreted” value was “No” and the “Amount of active GLP-1 secreted (relative value to control group as 100), average value” is 89.

`CC(O)C1NC(=O)CNC1=O` (stereo not drawn) [compound 116, Cyclo(Thr-Gly)]: for the setting “Table 3, Experiment 3”, the “Significant difference (p < 0.05) vs control group, amount of active GLP-1 secreted” value was “No” and the “Amount of active GLP-1 secreted (relative value to control group as 100), average value” is given as 146.

For the compound `NC(N)=NCCC[C@@H]1NC(=O)CNC1=O` [compound 117, Cyclo(Arg-Gly)], under “Table 3, Experiment 3”, the “Significant difference (p < 0.05) vs control group, amount of active GLP-1 secreted” value is on record as “No” and the “Amount of active GLP-1 secreted (relative value to control group as 100), average value” stood at 98.

For `CC1NC(=O)CNC1=O` (stereo not drawn) [compound 121, Cyclo(Gly-Ala)], where the note is “Table 3, Experiment 3”, the “Significant difference (p < 0.05) vs control group, amount of active GLP-1 secreted” value is listed as “No” and the “Amount of active GLP-1 secreted (relative value to control group as 100), average value” is on record as 153.

Take `C[C@@H]1NC(=O)[C@H](CC(N)=O)NC1=O` [compound 124, Cyclo(Asn-Ala)]: where the note is “Table 3, Experiment 3”, the “Significant difference (p < 0.05) vs control group, amount of active GLP-1 secreted” value is “No” and the “Amount of active GLP-1 secreted (relative value to control group as 100), average value” came to 116.

Consider `NC(=O)CC[C@@H]1NC(=O)CNC1=O` [compound 126, cyclo-glutaminyl-glycine], for which, for the setting “Table 3, Experiment 3”, the “Significant difference (p < 0.05) vs control group, amount of active GLP-1 secreted” value is listed as “Yes” and the “Amount of active GLP-1 secreted (relative value to control group as 100), average value” is 210.

On to `NC(=O)C[C@@H]1NC(=O)[C@H](CCC(=O)O)NC1=O` [compound 129, Cyclo(Asn-Glu)], for which, where the note is “Table 3, Experiment 3”, the “Significant difference (p < 0.05) vs control group, amount of active GLP-1 secreted” value was “No” and the “Amount of active GLP-1 secreted (relative value to control group as 100), average value” is 118.

For the compound `NC(=O)CC[C@@H]1NC(=O)[C@H](CCC(=O)O)NC1=O` [compound 130, Cyclo(Gln-Glu)], where the note is “Table 3, Experiment 3”, the “Significant difference (p < 0.05) vs control group, amount of active GLP-1 secreted” value was “No” and the “Amount of active GLP-1 secreted (relative value to control group as 100), average value” turned out to be 120.

Take `NC(=O)CC[C@@H]1NC(=O)[C@H](CO)NC1=O` [compound 136, Cyclo(Gln-Ser)]: for the setting “Table 3, Experiment 3”, the “Significant difference (p < 0.05) vs control group, amount of active GLP-1 secreted” value is “No” and the “Amount of active GLP-1 secreted (relative value to control group as 100), average value” was found to be 251.
